# Where two headings read alike, the source gives them in different places.
# Assays:
# experimental rat [1] = assay: Open Field Test in rats; type: in vivo
# Method: (§1) Evaluation of physical parameters of the test substances in experimental rat.
# (§2) • Species: Rat • Strain: Wister • Sex: Male • No. of animals: 48 Animals (n=6 per group) • Body weight: 180-200 gm Group, Designation and Dose Levels:
# (§3) The tests were performed by the known technique.
# (§4) The following behavioural test were conducted at the end of the treatment, • Force Swim Test • Open Field Test • Behavioural at Novel Object Test • Behaviour at Elevated Plus Maze (EPM) test
# experimental rat [2] = assay: Force Swim Test in rats; type: in vivo; conditions: male Wister rats, n=6, end of treatment, doses per Table 3
# Method: as §1, §2, §3, §4
# ALCAR = assay: Estimation of ALCAR plasma level (ALCAR ELISA kit); type: cell-based, Rat; conditions: doses per Table 1
# Method: f. Estimation of ALCAR Plasma Level (Nmol/Ml): Assay Performed by ALCAR ELISA Kit
# (§5) The estimation of modulatory effect of test substance on biochemical parameters were analysed in C6 (Rat Glioblastoma) cell. […] This indicated the increase in synapse number and neuroplasticity.
# BDNF = assay: Estimation of BDNF levels in C6 cells (Rat BDNF ELISA kit); type: cell-based; conditions: C6 (Rat Glioblastoma) cells, 28 hours of incubation, doses per Table 1
# Method: To perform the assay, cells were seeded in 24-well plates containing 500 μL complete Ham's F-12 with 4.5 g/L glucose. After 24 h, the confluent monolayer of cells was firstly incubated with the corresponding inhibitor compound for 1-4 h (based on standardization) minutes in the incubator at 37° C. and 5% CO2. Then, the selected dose of test substances and positive control was added to the cells. After 28 hours of incubation, the cell supernatants from respective treatment wells were collected and assayed to estimate the levels of BDNF using a commercially available Rat BDNF ELISA kit.
# experimental rat [3] = assay: Novel Object Test in rats; type: in vivo
# Method: as §1, §2, §3, §4
# Table 5 represent behavioural at novel object test where latency time spent towards the novel objects indicated better memory and learning ability. This test is based on the spontaneous tendency of rats to spend more time exploring a novel object than a familiar one.
# experimental rat [4] = assay: Elevated Plus Maze (EPM) test in rats; type: in vivo
# Method: as §1, §2, §3, §4
# cAMP = assay: Modulatory effect on cAMP levels in C6 cells (ELISA kit); type: cell-based; conditions: C6 (Rat Glioblastoma) cells, 28 hours of incubation, doses per Table 1
# Method: To assess the effectiveness of test substance on modulation of cAMP and evaluation of BDNF in Rat Glioblastoma cells.
# The cytotoxicity profiling of the test substance was carried out to find the safe dose on C6 cells. […] The levels of cAMP in the cell lysate were measured using a suitable ELISA kit to infer the modulatory effect.
# 10 mg of test substance was separately dissolved in 100 μL of DMSO and volume was made up with Ham's F-12 medium supplemented with 2% inactivated FBS to obtain a stock solution of 10 mg/mL concentration and sterilized by 0.22μ syringe filtration. Serial two-fold dilutions were prepared from this stock solution for further studies.
# C6 (Rat Glioblastoma) cell line was procured from NCCS, India. Stock cells was cultured in Ham's F-12 medium supplemented with 10% inactivated Fetal Bovine Serum (FBS), penicillin (100 IU/ml), streptomycin (100 μg/ml) and amphotericin B (5 μg/ml) in a humidified atmosphere of 5% CO2 at 37° C. until confluent. Passaging was done by centrifuging the cells, followed by seeding the pellet into a tissue culture vessel. The stock cultures were grown in 25 cm2 culture flasks and all experiments will be carried out in 96 microtitre plates (Tarsons India Pvt. Ltd., Kolkata, India).
# To perform the assay, cells were seeded in 24-well plates containing […] complete Ham's F-12 with 4.5 g/L glucose. […] Then, the selected dose of test substances and positive control (Clozapine) was added to the cells. After 28 hours of incubation, the cell supernatants from respective treatment wells were collected and assayed to estimate the levels of cyclic AMP using a commercially available kit.
# [5] = test system: CREB (Cyclic AMP Response Element-Binding Protein); assay: Estimation of CREB (Cyclic AMP Response Element-Binding Protein); type: cell-based, Rat; conditions: doses per Table 1
# Method: g. Estimation of CREB (Cyclic AMP Response Element-Binding Protein) nM Results:
# as §5
# [6] = test system: Adult Patients with Major Depressive Disorder; assay: Double-blind, fixed-dose clinical study, Hamilton Rating Scale for Depression (HAM-D); type: in vivo, human
# Method: Composition-1—(3R)-3-acetyloxy-4-(trimethylazaniumyl)butanoate+N-4-Aminobutylguanidine—500 mg+250 mg
# (§6) A double-blind, Fixed-dose study, 80 participants (males and females) with major depression were randomly assigned to receive test samples. Age eligibility for study include 18 Years to 65 Years (Adult, Older Adult)
# Participants were evaluated at visits at screening, baseline/randomization, and 4, 8, and 12 weeks after randomization. Masking—Triple (Participant, Investigator, Outcomes Assessor); Parallel Assignment
# Pre-assignment Details: A one-week single-blind placebo period was completed prior to randomization.
# Change From Baseline in Hamilton Rating Scale for Depression (HAM-D) at Week 4, 8 and 12 [Time Frame: Change from baseline in HAM-D at week 4, 8 and 12]
# The HAMD is a clinician-rated 21-item scale was used to rate the patient's depressive state. It was also used to identify obsessive-compulsive, genital, and somatic symptoms, as well as diurnal variation in the presence of symptoms. Each item was scored on a 1, 2, 3, 4 or 5-point Likert scale. A score of 0 indicated the absence of symptoms, and a score of 2, 3 or 4 indicated symptoms of maximum severity. The total score range is 0 to 62 (higher score indicates a greater depressive state).
# [7] = test system: Adult Patients with Major Depressive Disorder; assay: Clinical study, serum Acetyl-L carnitine (ALCAR) levels; type: in vivo, human
# Text: as §6
# To measure serum Acetyl-L carnitine levels pre-treatment and end of 12 weeks and correlate it with severity of depression and treatment outcomes.
# [8] = male Wister rats, n=6, end of treatment, doses per Table 3
# [9] = pretreatment, whole arm (Table 8)
structure (smiles),measurement,setting,value
CN1CCN(C2=Nc3cc(Cl)ccc3Nc3ccccc32)CC1 [Clozapine],Open Field Test Distance walked in corners,experimental rat [1]; [8],2200 cm
same,Open Field Test Latency to reach center,experimental rat [1]; [8],38 s
same,Force Swim Test Immobility,experimental rat [2],189 s
same,Plasma ALCAR,ALCAR,21 nmol/mL
same,BDNF,BDNF,77 ng/L
same,Latency to reach Novel Object,experimental rat [3]; [8],03 s
same,Number of times sniffing the object,experimental rat [3]; [8],62 times
same,Time Spent sniffing the object,experimental rat [3]; [8],13%
same,Number of entries in to open arm,experimental rat [4]; [8],10 times
same,Number of times head dipping,experimental rat [4]; [8],18 times
same,Number of times rearing,experimental rat [4]; [8],25 times
same,Time Spent Rearing,experimental rat [4]; [8],19%
same,Time in the open arms,experimental rat [4]; [8],15%
same,time spent head dipping,experimental rat [4]; [8],21%
same,cAMP,cAMP,4.1 pmol/µL
same,CREB,[5],0.5 nM
CN(C)CCC[C@@]1(c2ccc(F)cc2)OCc2cc(C#N)ccc21 [Escitalopram],Open Field Test Distance walked in corners,experimental rat [1]; [8],1900 cm
same,Open Field Test Latency to reach center,experimental rat [1]; [8],26 s
same,Force Swim Test Immobility,experimental rat [2],68 s
same,Mean HAM-D Score,[6]; Baseline,26.2
same,Mean HAM-D Score,[6]; Week-4,25.72
same,Non-Responder Rate,[6]; Week-4,(100%)
same,"Non-Responder Rate, patients/total",[6]; Week-4,40/40
same,Remission Rate (HAM-D Score <7),[6]; Week-4,(0%)
same,"Remission Rate (HAM-D Score <7), patients/total",[6]; Week-4,0/40
same,Responder Rate (50% Reduction from baseline),[6]; Week-4,(0%)
same,"Responder Rate (50% Reduction from baseline), patients/total",[6]; Week-4,0/40
same,Mean HAM-D Score,[6]; Week-8,21.45
same,Non-Responder Rate,[6]; Week-8,(97.5%)
same,"Non-Responder Rate, patients/total",[6]; Week-8,39/40
same,Remission Rate (HAM-D Score <7),[6]; Week-8,(0%)
same,"Remission Rate (HAM-D Score <7), patients/total",[6]; Week-8,0/40
same,Responder Rate (50% Reduction from baseline),[6]; Week-8,(2.5%)
same,"Responder Rate (50% Reduction from baseline), patients/total",[6]; Week-8,1/40
same,Mean HAM-D Score,[6]; Week-12,13.75
same,Non-Responder Rate,[6]; Week-12,(52.5%)
same,"Non-Responder Rate, patients/total",[6]; Week-12,21/40
same,Remission Rate (HAM-D Score <7),[6]; Week-12,(17.5%)
same,"Remission Rate (HAM-D Score <7), patients/total",[6]; Week-12,7/40
same,Responder Rate (50% Reduction from baseline),[6]; Week-12,(30%)
same,"Responder Rate (50% Reduction from baseline), patients/total",[6]; Week-12,12/40
same,Non-Responder Remission Rate in Female Subgroup,"[6]; Week-12, female subgroup",(75%)
same,"Non-Responder Remission Rate in Female Subgroup, patients/total","[6]; Week-12, female subgroup",21/28
same,Responder Remission Rate in Female Subgroup,"[6]; Week-12, female subgroup",(25%)
same,"Responder Remission Rate in Female Subgroup, patients/total","[6]; Week-12, female subgroup",7/28
same,Mean HAM-D Score at pretreatment,[6]; [9],26.2
same,"Mean Serum ALCAR, Non-Responder group",[7]; Baseline,0.94 µg/mL
same,"Mean Serum ALCAR, Remission group",[7]; Baseline,1.20 µg/mL
same,"Mean Serum ALCAR, Responder group",[7]; Baseline,0.91 µg/mL
same,"Mean Serum ALCAR, Non-Responder group",[7]; Week-12,0.99 µg/mL
same,"Mean Serum ALCAR, Remission group",[7]; Week-12,3.53 µg/mL
same,"Mean Serum ALCAR, Responder group",[7]; Week-12,2.19 µg/mL
same,Mean serum ALCAR at pretreatment,[7]; [9],1.01 microgram/ml
same,Plasma ALCAR,ALCAR,23 nmol/mL
same,Latency to reach Novel Object,experimental rat [3]; [8],32 s
same,Number of times sniffing the object,experimental rat [3]; [8],48 times
same,Time Spent sniffing the object,experimental rat [3]; [8],09%
same,Number of entries in to open arm,experimental rat [4]; [8],07 times
same,Number of times head dipping,experimental rat [4]; [8],12 times
same,Number of times rearing,experimental rat [4]; [8],18 times
same,Time Spent Rearing,experimental rat [4]; [8],16%
same,Time in the open arms,experimental rat [4]; [8],11%
same,time spent head dipping,experimental rat [4]; [8],12%
same,cAMP,cAMP,6.0 pmol/µL
same,CREB,[5],0.8 nM
"CC(=O)O[C@H](CC(=O)[O-])C[N+](C)(C)C [Group 4, (3R)-3-acetyloxy-4-(trimethylazaniumyl)butanoate]",Open Field Test Distance walked in corners,experimental rat [1]; [8],1860 cm
same,Open Field Test Latency to reach center,experimental rat [1]; [8],27 s
same,Force Swim Test Immobility,experimental rat [2],55 s
same,Plasma ALCAR,ALCAR,25 nmol/mL
same,BDNF,BDNF,88 ng/L
same,Latency to reach Novel Object,experimental rat [3]; [8],35 s
same,Number of times sniffing the object,experimental rat [3]; [8],49 times
same,Time Spent sniffing the object,experimental rat [3]; [8],08%
same,Number of entries in to open arm,experimental rat [4]; [8],08 times
same,Number of times head dipping,experimental rat [4]; [8],12 times
same,Number of times rearing,experimental rat [4]; [8],18 times
same,Time Spent Rearing,experimental rat [4]; [8],15%
same,Time in the open arms,experimental rat [4]; [8],12%
same,time spent head dipping,experimental rat [4]; [8],11%
same,cAMP,cAMP,4.8 pmol/µL
same,CREB,[5],1.0 nM
"N=C(N)NCCCCN [Group 5, N-4-aminobutylguanidine]",Open Field Test Distance walked in corners,experimental rat [1],1820 cm
same,Open Field Test Latency to reach center,experimental rat [1],25 s
same,Force Swim Test Immobility,experimental rat [2],59 s
same,Plasma ALCAR,ALCAR,22 nmol/mL
same,BDNF,BDNF,91 ng/L
same,Time Spent sniffing the object,experimental rat [3],09%
same,Latency to reach Novel Object,experimental rat [3]; [8],36 s
same,Number of times sniffing the object,experimental rat [3]; [8],47 times
same,Time Spent Rearing,experimental rat [4],13%
same,time spent head dipping,experimental rat [4],10%
same,Number of entries in to open arm,experimental rat [4]; [8],07 times
same,Number of times head dipping,experimental rat [4]; [8],11 times
same,Number of times rearing,experimental rat [4]; [8],16 times
same,Time in the open arms,experimental rat [4]; [8],11%
same,cAMP,cAMP,5.1 pmol/µL
same,CREB,[5],1.2 nM

# — patent US12226385B2, “Synergistic composition for activating intracellular secondary messenger(cAMP) pathway” (CELAGENEX RESEARCH (INDIA) PRIVATE LTD., priority 2021, dated 2025)
